Patent US10919852B2, “Immunomodulator compounds” (CHEMOCENTRYX, INC., priority 2017, dated 2021)

biological target: human PD-L1 / Human PD-1 (Homo sapiens (Human), UniProt Q9NZQ7); assay: Enzyme-Linked Immunosorbent Assay (ELISA), PD-1/PD-L1 binding; settings: plate-coated human PD-L1, biotinylated human PD-1
Description: Biological Example: Enzyme-Linked Immunosorbent Assay—ELISA
96 Well plates were coated with […] of human PD-L1 (obtained from R&D) in PBS overnight at 4° C. The wells were then blocked with 2% BSA in PBS (W/V) with 0.05% TWEEN-20 for 1 hour at 37° C. The plates were washed 3 times with PBS/0.05% TWEEN-20 and the compounds were serial diluted (1:5) in dilution medium and added to the ELISA plates. Human PD-1 and biotin 0.3 μg/mL (ACRO Biosystems) were added and incubated for 1 hour at 37° C. then washed 3 times with PBS/0.05% TWEEN-20. A second block was performed with 2% BSA in PBS (W/V)/0.05% TWEEN-20 for 10 min at 37° C. and was washed 3 times with PBS/0.05% TWEEN-20. Streptavidin-HRP was added for 1 hour at 37° C. then washed 3 times with PBS/0.05% TWEEN-20. TMB substrate was added and reacted for 20 min at 37° C. A stop solution (2 N aqueous H2SO4) was added. The absorbance was read at 450 nm using a micro-plate spectrophotometer.

Chain of human PD-L1 / Human PD-1 (Q9NZQ7 19-239): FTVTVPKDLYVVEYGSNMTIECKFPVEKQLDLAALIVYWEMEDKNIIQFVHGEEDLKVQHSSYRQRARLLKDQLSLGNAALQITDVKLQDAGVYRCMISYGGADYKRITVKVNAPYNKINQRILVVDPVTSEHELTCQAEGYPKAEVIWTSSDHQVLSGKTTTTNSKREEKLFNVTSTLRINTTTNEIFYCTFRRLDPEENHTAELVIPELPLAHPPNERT

Row | IC50 [nM] | Compound
1 | 5 to 500 | CCOc1cc(O[C@H]2CCc3c(-c4cccc(OCCCN5CCC5C(C)(C)C)c4C)cccc32)c(Cl)cc1CNC[C@@H]1CCC(=O)N1 (some centres unmarked)
2 | 5 to 500 | N#Cc1cncc(-c2cc(O[C@H]3CCc4c(-c5cccc(OCCCN6CCC(F)CC6)c5Cl)cccc43)c(Cl)cc2CN[C@@H]2CCCC[C@@H]2O)c1
3 | < 5 | N#Cc1cncc(COc2cc(O[C@H]3CCc4c(-c5cccc(OCCCN6CCC(F)CC6)c5Cl)cccc43)c(Cl)cc2CN[C@H]2CCOC[C@H]2O)c1
4 | < 5 | CC(CO)(NCc1cc(Cl)c(O[C@H]2CCc3c(-c4cccc(OCCCN5CC6(CC(F)C6)C5)c4Cl)cccc32)cc1OCc1cncc(C#N)c1)C(=O)O (some centres unmarked)
5 | < 5 | C[C@@H](O)[C@H](NCc1cc(Cl)c(O[C@H]2CCc3c(-c4cccc(OCCCN5CC(O)C5)c4Cl)cccc32)cc1OCc1cncc(C#N)c1)C(N)=O
6 | < 5 | C[C@@H](O)[C@H](NCc1cc(Cl)c(O[C@H]2CCc3c(-c4cccc(OCCCN5CCCCC5)c4Cl)cccc32)cc1OCc1cncc(C#N)c1)C(=O)NS(C)(=O)=O
7 | 5 to 500 | N#Cc1cncc(COc2cc(O[C@H]3CCc4c(-c5cccc(OCCCN6CC7(CC(O)C7)C6)c5Cl)cccc43)c(Cl)cc2CN2CCC3(C2)NC(=O)NC3=O)c1 (some centres unmarked)
8 | 5 to 500 | Cc1c(OCCCN2CCC(F)CC2)cccc1-c1cccc2c1CC[C@@H]2Oc1cc(OCc2cncc(C#N)c2)c(CNCC2CCC(=O)N2C)cc1Cl (some centres unmarked)
9 | 5 to 500 | N#Cc1cncc(COc2cc(O[C@H]3CCc4c(-c5cccc(OCCCN6CC7(CC(F)C7)C6)c5Cl)cccc43)c(Cl)cc2CN2CC3(C2)NC(=O)NC3=O)c1
10 | < 5 | N#Cc1cncc(COc2cc(O[C@H]3CCc4c(-c5cccc(OCCCN6CCC6)c5Cl)cccc43)c(Cl)cc2CNC[C@@H]2CCC(=O)N2)c1
11 | < 5 | N#Cc1cncc(COc2cc(O[C@H]3CCc4c(-c5cccc(OCCCN6CCC(F)CC6)c5Cl)cccc43)c(Cl)cc2CNC[C@H]2CCC(=O)N2)c1
12 | < 5 | Cc1c(OCCCN2CC[C@@H](F)C2)cccc1-c1cccc2c1CC[C@@H]2Oc1cc(OCc2cncc(C#N)c2)c(CN[C@@H]2CCCC[C@@H]2O)cc1Cl
13 | < 5 | Cc1c(OCCCN2CCC(F)CC2)cccc1-c1cccc2c1CC[C@@H]2Oc1cc(OCc2cc(C#N)cc(C#N)c2)c(CNCC(=O)NS(C)(=O)=O)cc1Cl
14 | < 5 | N#Cc1cncc(COc2cc(O[C@H]3CCc4c(-c5cccc(OCCCN6CC7(CC(O)C7)C6)c5Cl)cccc43)c(Cl)cc2CN[C@@H]2CCCC[C@@H]2O)c1
15 | < 5 | CN1CCC(COc2cccc(-c3cccc4c3CC[C@@H]4Oc3cc(OCc4cncc(C#N)c4)c(CNC[C@H]4CCC(=O)N4)cc3Cl)c2Cl)C1 (some centres unmarked)
16 | < 5 | Cc1c(OCCCN2CCC(O)CC2)cccc1-c1cccc2c1CC[C@@H]2Oc1cc(OCc2cncc(C#N)c2)c(CN2CC[C@H](O)C2)cc1Cl
17 | < 5 | Cc1c(OCCCN2CCC(C)CC2)cccc1-c1cccc2c1CC[C@@H]2Oc1cc(OCc2cc(C#N)cc(C#N)c2)c(CNC[C@@H]2CCC(=O)N2)cc1Cl
18 | 5 to 500 | CCOc1cc(O[C@@H]2c3cccc(-c4cccc(OCCCN5CC(O)C5)c4Cl)c3C[C@@H]2F)c(Cl)cc1CN[C@@](C)(CO)C(=O)O
19 | 5 to 500 | Cc1c(OCCCN2CCC(C)(F)CC2)cccc1-c1cccc2c1C[C@@H](F)[C@@H]2Oc1cc(OCc2cc(C#N)cc(C#N)c2)c(CN[C@H]2CCC(=O)NC2)cc1Cl
20 | < 5 | Cc1c(OCCCN2CCC(O)CC2)cccc1-c1cccc2c1CC[C@@H]2Oc1cc(OCc2cncc(C#N)c2)c(CN[C@H](C(=O)O)[C@@H](C)O)cc1Cl
21 | < 5 | N#Cc1cncc(COc2cc(O[C@H]3CCc4c(-c5cccc(OCCCN6CCC(F)CC6)c5Cl)cccc43)c(Cl)cc2CN[C@H]2CCC(=O)NC2)c1
22 | < 5 | Cc1c(OCCCN2CC(O)C2)cccc1-c1cccc2c1CC[C@@H]2Oc1cc(OCc2cncc(C#N)c2)c(CN[C@H](C(=O)O)[C@@H](C)O)cc1Cl

Row | IC50 [nM] | Compound
23 | 5 to 500 | CCOc1cc(O[C@H]2CCc3c(-c4cccc(OCCCN5CCC5(C)C)c4C)cccc32)c(Cl)cc1CN(C)CCCC(=O)OC
24 | < 5 | Cc1c(OCCCN2CCC(O)CC2)cccc1-c1cccc2c1CC[C@@H]2Oc1cc(OCc2cncc(C#N)c2)c(CN[C@H](C(N)=O)[C@@H](C)O)cc1Cl
25 | 5 to 500 | N#Cc1cncc(COc2cc(O[C@H]3CCc4c(-c5cccc(OCCCN6CC(O)C6)c5C(F)(F)F)cccc43)c(Cl)cc2CNCC2CCC(=O)N2)c1 (some centres unmarked)
26 | 5 to 500 | N#Cc1cncc(COc2cc(O[C@H]3CCc4c(-c5cccc(OCCCN6CCC(F)CC6)c5C#N)cccc43)c(Cl)cc2CNCC2CCC(=O)N2)c1 (some centres unmarked)
27 | < 5 | Cc1c(OCCCN2CCC(O)CC2)cccc1-c1cccc2c1CC[C@@H]2Oc1cc(OCc2cncc(C#N)c2)c(CN[C@@H]2CCCC[C@@H]2O)cc1Cl
28 | 5 to 500 | N#Cc1cncc(COc2cc(O[C@H]3CCc4c(-c5cccc(OCCCN6CC7(CC(F)C7)C6)c5Cl)cccc43)c(Cl)cc2CN2CCC3(C2)NC(=O)NC3=O)c1 (some centres unmarked)
29 | 5 to 500 | Cc1c(OCCCN2CC(C)(F)C2)cccc1-c1cccc2c1CC[C@@H]2Oc1cc(OCc2cc(C#N)cc(C#N)c2)c(CNC[C@H]2CCC(=O)N2)cc1Cl
30 | < 5 | CC(CO)(NCc1cc(Cl)c(O[C@H]2CCc3c(-c4cccc(OCCCN5CC(O)C5)c4Cl)cccc32)cc1OCc1cccnc1)C(=O)O (some centres unmarked)
31 | < 5 | Cc1c(OCCCN2CCC(O)CC2)cccc1-c1cccc2c1CCC2Oc1cc(OCc2cc(C#N)cc(C#N)c2)c(CN[C@@H]2CCCC[C@@H]2O)cc1Cl (some centres unmarked)
32 | < 5 | Cc1c(OCCCN2CC3(CC(F)C3)C2)cccc1-c1cccc2c1CC[C@@H]2Oc1cc(OCc2cc(C#N)cc(C#N)c2)c(CN[C@H]2CCC(=O)NC2)cc1Cl
33 | 5 to 500 | CCOc1cc(O[C@H]2CCc3c(-c4cccc(OCCCN5CCC(F)CC5)c4Cl)cccc32)c(Cl)cc1CNC(C)(CO)CO
34 | < 5 | Cc1c(OCCCN2CCC(O)CC2)cccc1-c1cccc2c1CC[C@@H]2Oc1cc(OCCCN2CC[C@H](O)C2)c(CN[C@@H]2CCCC[C@@H]2O)cc1Cl
35 | 5 to 500 | Cc1c(OCCCN2CC(C)(F)C2)cccc1-c1cccc2c1CC[C@@H]2Oc1cc(OCc2cc(C#N)cc(C#N)c2)c(CN[C@H]2CCC(=O)NC2)cc1Cl
36 | < 5 | CCOc1cc(O[C@H]2CCc3c(-c4cccc(OCCCN5CC(O)C5)c4Cl)cccc32)c(Cl)cc1CN[C@@](C)(CO)C(=O)O
37 | < 5 | N#Cc1cncc(COc2cc(O[C@H]3CCc4c(-c5cccc(OCCCN6CCC(F)CC6)c5Cl)cccc43)c(Cl)cc2CN[C@H]2CCC[C@H]2O)c1
38 | < 5 | Cc1c(OCCCN2CC(F)C2)cccc1-c1cccc2c1CC[C@@H]2Oc1cc(OCc2cncc(C#N)c2)c(CNCC2CCC(=O)N2)cc1Cl (some centres unmarked)
39 | 5 to 500 | CCOc1cc(O[C@H]2CCc3c(-c4cccc(OCCCN5CCC5(C)C)c4C)cccc32)c(Cl)cc1CNCC(C)(C)CO
40 | 5 to 500 | CCOc1cc(O[C@H]2CCc3c(-c4cccc(OCCCN5CCC(F)CC5)c4Cl)cccc32)c(Cl)cc1CN[C@@H]1CCC(=O)NC1
41 | < 5 | CCOc1cc(O[C@H]2CCc3c(-c4cccc(OCCCN5CC[C@@H](O)C5)c4C)cccc32)c(Cl)cc1CN[C@@H](CO)C(=O)O
42 | < 5 | Cc1c(OCCCN2CCC(O)CC2)cccc1-c1cccc2c1CC[C@@H]2Oc1cc(OCc2cc(C#N)cc(C#N)c2)c(CN[C@H](C(=O)O)[C@@H](C)O)cc1Cl
43 | 5 to 500 | CCOc1cc(O[C@H]2CCc3c(-c4cccc(OCCCN5CC(O)C5)c4Cl)cccc32)c(Cl)cc1CN[C@@H]1CCCC[C@@H]1O
44 | < 5 | N#Cc1cncc(COc2cc(O[C@H]3CCc4c(-c5cccc(OCCCN6CC7(C6)CC(F)(F)C7)c5Cl)cccc43)c(Cl)cc2CN[C@@H]2CCC[C@@H]2O)c1
